Consider two compounds from publication PMC2610240 (Drug metabolism and disposition: the biological fate of …, 2008).

Molecules are shown by their SMILES. “And” between values parts separate entries of the source, which are not always exact repeats. Equal values may be shown once.

The target in data set [1] is T1, purified recombinant human b5R (NADH b5 reductase) (Homo sapiens, UniProt P00387).
T1 sequence (P00387 1-301): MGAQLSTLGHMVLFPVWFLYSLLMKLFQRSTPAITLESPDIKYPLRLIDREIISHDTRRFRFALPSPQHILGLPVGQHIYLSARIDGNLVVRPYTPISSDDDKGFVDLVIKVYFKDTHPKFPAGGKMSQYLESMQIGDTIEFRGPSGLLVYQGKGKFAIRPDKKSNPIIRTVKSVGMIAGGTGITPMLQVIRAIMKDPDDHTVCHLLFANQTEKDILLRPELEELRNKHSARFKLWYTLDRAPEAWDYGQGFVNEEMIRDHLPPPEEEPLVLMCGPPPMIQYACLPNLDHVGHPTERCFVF
As to the kind of experiment: Inhibition of recombinant b5R activity. Type of data set: biochemical.

In data set [2] the target is T2, b5R activity in human liver microsomes (Homo sapiens, UniProt P00387).
T2 sequence (P00387 1-301): T1 sequence (P00387 1-301)
As to the kind of experiment: Inhibition of b5R activity in HLMs. Type of data set: biochemical.

Data set [3] relates to CPR activity in rat liver microsomes. Conditions: concentrations up to 10 mM, ref Lee and Kariya, 1986; cited from earlier work.
In data set [4] the test system is b5R activity in rat liver microsomes. To be noted: concentrations up to 10 mM, ref Lee and Kariya, 1986; cited from earlier work.
Data set [5] deals with T3, CPR activity in human liver microsomes (Homo sapiens, UniProt P16435).
T3 sequence (P16435 1-677): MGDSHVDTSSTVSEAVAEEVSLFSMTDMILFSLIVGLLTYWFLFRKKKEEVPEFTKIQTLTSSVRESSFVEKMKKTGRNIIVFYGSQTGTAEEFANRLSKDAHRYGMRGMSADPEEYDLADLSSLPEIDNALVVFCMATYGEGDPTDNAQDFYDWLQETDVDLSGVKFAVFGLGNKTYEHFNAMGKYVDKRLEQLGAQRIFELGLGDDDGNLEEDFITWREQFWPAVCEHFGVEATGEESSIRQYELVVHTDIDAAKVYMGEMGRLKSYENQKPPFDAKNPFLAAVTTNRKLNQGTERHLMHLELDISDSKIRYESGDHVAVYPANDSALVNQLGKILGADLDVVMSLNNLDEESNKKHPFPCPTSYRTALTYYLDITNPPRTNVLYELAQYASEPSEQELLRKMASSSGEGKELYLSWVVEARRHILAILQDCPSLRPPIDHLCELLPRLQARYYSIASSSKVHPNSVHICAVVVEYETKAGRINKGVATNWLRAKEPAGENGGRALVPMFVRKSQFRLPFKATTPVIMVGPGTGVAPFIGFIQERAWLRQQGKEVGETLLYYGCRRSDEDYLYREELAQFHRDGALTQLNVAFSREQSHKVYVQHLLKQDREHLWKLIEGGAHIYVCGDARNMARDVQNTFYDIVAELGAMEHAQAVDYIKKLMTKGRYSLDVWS
The experiment in a line: Inhibition of CPR activity in HLMs.

Data set [6] concerns the target T4, purified recombinant human CPR (NADPH-cytochrome P450 reductase) (Homo sapiens, UniProt P16435).
T4 sequence (P16435 1-677): T3 sequence (P16435 1-677)
The experiment in a line: Inhibition of recombinant CPR activity. Conditions: recombinant enzyme.

Data set [7] concerns the target T4, purified recombinant human CPR (NADPH-cytochrome P450 reductase). The experiment in a line: biochemical.

Regarding `CCCc1cc(=O)[nH]c(=S)[nH]1` [PTU, 6-propyl-2-thiouracil], the “decrease in b5R activity” value in data set [1] (recombinant enzyme, 4 mM PTU, 15 min pre-incubation at 25°C) is 78%. In addition, the “reduction in b5R activity” value in data set [2] (4 mM PTU (highest concentration), 15 min pre-incubation at 25°C) is on record as 41%. For the same compound, the “maximal inhibition of b5R activity” value in data set [2] (over 1 to 4 mM PTU) is recorded as “about 40%”. Further, in data set [3], the “effect on CPR activity” value is “without reducing CPR activity”. For the same compound, in data set [4], the “effect on b5R activity” value is “selectively inhibit b5R activity”. The “reduction in CPR activity” value in data set [5] (4 mM PTU (highest concentration)) is 16% and < 20%. Besides, the “decrease in CPR activity” value in data set [6] (4 mM PTU) amounted to 51%.

In the case of `O=C(O)CCCCC1CCSS1` (stereo not drawn) [α-lipoic acid], the IC50 (as a rule, the point on the concentration scale where inhibition reaches its midpoint) in data set [1] was 50 ± 50 µM; in data set [7], 140 ± 20 µM. For the same compound, the “reduction in b5R activity” value in data set [1] (recombinant enzyme, 2 mM α-lipoic acid, maximal effect) amounted to 84%; in data set [2] (2 mM α-lipoic acid), 54%. The “reduction in CPR activity” value is given as 76% in data set [5] (2 mM α-lipoic acid) and 92% in data set [6] (2 mM α-lipoic acid, maximal effect).
